“And” between values parts separate entries of the source, which are not always exact repeats. Identical values can stand only once. Like-named read-outs stand apart in the source and are kept apart here.
What was measured:
[1] = target: T1, ADR3 (Homo sapiens, UniProt P13945); assay: Binding assay ADR3 (reference Alprenolol); details: 100 nM
T1 construct: Eurofins Cerep (external service)

[2] = target: T2, CCR10 (Homo sapiens, UniProt P46092); assay: Cellular functional assay CCR10
T2 sequence (P46092 1-362): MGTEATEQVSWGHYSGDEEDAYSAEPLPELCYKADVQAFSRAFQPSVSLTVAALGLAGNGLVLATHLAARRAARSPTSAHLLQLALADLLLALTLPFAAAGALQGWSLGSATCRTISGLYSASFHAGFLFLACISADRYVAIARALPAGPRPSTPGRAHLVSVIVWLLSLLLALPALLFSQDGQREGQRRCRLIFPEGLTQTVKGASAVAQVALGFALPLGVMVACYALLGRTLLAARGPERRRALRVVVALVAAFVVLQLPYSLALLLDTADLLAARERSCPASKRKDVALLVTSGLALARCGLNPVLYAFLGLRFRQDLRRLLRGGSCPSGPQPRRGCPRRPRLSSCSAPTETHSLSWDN

[3] = target: T3, CCR3 (Homo sapiens, UniProt P51677); assay: Cellular functional assay CCR3
T3 sequence (P51677 1-355): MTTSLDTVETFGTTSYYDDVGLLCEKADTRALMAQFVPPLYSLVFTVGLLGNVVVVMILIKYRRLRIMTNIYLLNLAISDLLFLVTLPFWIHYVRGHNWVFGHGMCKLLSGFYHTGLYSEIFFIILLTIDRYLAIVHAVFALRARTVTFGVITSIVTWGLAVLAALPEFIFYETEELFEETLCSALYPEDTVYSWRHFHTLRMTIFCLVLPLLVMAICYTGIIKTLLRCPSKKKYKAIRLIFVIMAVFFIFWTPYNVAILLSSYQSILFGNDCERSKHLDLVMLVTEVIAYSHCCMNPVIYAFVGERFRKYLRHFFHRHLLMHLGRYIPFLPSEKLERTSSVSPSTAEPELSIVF

[4] = target: T4, CXCR5 (Homo sapiens, UniProt P32302); assay: Cellular functional assay CXCR5
T4 sequence (P32302 1-372): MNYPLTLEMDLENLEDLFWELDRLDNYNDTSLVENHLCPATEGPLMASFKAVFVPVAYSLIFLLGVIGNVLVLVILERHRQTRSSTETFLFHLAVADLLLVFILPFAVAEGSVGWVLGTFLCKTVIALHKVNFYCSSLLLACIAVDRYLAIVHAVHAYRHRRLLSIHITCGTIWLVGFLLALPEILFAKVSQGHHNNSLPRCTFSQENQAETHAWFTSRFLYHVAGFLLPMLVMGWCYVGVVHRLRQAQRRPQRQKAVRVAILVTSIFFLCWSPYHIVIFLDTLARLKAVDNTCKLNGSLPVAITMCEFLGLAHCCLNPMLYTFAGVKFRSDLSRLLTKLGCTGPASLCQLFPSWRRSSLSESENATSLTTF

[5] = target: T5, CXCR3 (Homo sapiens, UniProt P49682); assay: Cellular functional assay CXCR3
T5 sequence (P49682 1-368): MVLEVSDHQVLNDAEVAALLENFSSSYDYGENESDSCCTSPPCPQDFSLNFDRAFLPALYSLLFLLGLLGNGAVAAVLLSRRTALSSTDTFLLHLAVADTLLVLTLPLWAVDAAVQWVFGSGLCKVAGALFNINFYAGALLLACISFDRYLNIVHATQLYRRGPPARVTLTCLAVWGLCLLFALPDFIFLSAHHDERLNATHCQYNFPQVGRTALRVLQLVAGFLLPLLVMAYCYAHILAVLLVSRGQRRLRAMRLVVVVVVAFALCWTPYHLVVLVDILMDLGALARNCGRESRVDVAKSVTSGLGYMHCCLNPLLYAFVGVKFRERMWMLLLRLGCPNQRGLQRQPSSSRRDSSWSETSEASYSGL

[6] = target: CCR5 (Homo sapiens, UniProt P51681); assay: Cellular functional assay CCR5
Chain of CCR5 (P51681 whole entry): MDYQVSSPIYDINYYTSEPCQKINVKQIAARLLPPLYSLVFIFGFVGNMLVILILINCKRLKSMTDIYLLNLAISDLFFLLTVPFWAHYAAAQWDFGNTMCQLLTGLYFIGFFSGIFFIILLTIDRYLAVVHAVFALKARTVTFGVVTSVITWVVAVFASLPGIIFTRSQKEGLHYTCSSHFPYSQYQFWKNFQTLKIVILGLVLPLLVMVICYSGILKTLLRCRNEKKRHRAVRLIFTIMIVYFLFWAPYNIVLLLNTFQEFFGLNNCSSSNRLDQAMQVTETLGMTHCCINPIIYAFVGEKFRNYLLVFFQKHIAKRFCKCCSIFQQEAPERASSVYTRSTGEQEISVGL

[7] = target: T6, CysLT2 (Homo sapiens, UniProt Q9NS75); assay: Binding assay CysLT2; details: 100 nM
T6 construct: Eurofins Cerep (external service)
T6 sequence (Q9NS75 1-346): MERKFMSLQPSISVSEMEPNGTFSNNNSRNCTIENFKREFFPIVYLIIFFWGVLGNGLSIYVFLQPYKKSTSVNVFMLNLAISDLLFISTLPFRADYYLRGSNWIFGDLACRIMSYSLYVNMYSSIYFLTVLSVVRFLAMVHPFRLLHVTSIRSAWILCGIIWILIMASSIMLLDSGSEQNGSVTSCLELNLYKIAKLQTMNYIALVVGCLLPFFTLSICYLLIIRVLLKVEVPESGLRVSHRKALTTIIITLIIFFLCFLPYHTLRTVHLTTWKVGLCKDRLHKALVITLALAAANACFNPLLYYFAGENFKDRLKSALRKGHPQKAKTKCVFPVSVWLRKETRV

[8] = mean of 2, read-out: % Of control specific binding, Mean
[9] = read-out: % Inhibition of control specific binding
[10] = single replicates 1 and 2, 0.1 µM
[11] = single replicates 1 and 2, read-out: % Of control specific binding
[12] = antagonist effect, 100 nM, single replicates 1st and 2nd, 0.1 µM
[13] = read-out: % Inhibition of control agonist response
[14] = read-out: Agonist Response (% of Control), Mean, antagonist effect, 100 nM, mean of 2
[15] = read-out: Agonist Response (% of Control), antagonist effect, 100 nM, single replicates 1st and 2nd

T1 sequence (P13945 whole entry): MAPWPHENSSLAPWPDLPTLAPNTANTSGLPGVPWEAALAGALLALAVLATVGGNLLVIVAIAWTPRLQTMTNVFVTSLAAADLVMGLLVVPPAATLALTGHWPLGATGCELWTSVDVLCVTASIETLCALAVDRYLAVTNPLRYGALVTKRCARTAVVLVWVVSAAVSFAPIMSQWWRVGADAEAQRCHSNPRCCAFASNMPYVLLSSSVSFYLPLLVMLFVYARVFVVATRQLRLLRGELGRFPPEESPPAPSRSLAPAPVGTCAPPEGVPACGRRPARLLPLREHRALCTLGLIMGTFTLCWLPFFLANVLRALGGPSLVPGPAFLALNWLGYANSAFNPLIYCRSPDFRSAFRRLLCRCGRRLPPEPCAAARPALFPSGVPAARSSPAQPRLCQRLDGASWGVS

- remaining activity at 0.1 µM [1, 8]: 99.1%
- inhibition at 0.1 µM [1, 9]: 1%
- % Of control specific binding [1, 10]: 95.7%
- remaining activity at 0.1 µM [1, 11]: 102%
- Agonist Response (% of Control) [2, 12]: 90.0%
- inhibition at 0.1 µM [2, 13]: -0.9%
- activity at 0.1 µM [2, 14]: 87.7%
- activity at 0.1 µM [2, 15]: 85.4%
- Agonist Response (% of Control) [3, 12]: 121.2%
- inhibition at 0.1 µM [3, 13]: -0.9%
- activity at 0.1 µM [3, 14]: 118%
- activity at 0.1 µM [3, 15]: 116%
- Agonist Response (% of Control) [4, 12]: 99.7%
- inhibition at 0.1 µM [4, 13]: 1.2%
- activity at 0.1 µM [4, 14]: 102%
- activity at 0.1 µM [4, 15]: 103%
- Agonist Response (% of Control) [5, 12]: 102.1%
- inhibition at 0.1 µM [5, 13]: 0.3%
- activity at 0.1 µM [5, 14]: 102%
- activity at 0.1 µM [5, 15]: 103%
- inhibition at 0.1 µM ([6]; CCR5, read-out: % Inhibition of control agonist response): -1.5%
- activity at 0.1 µM ([6]; CCR5, read-out: Agonist Response (% of Control), Mean, antagonist effect, 100 nM, mean of 2): 126%
- Agonist Response (% of Control) [6, 12]: 140.8% and 112.0%
- remaining activity at 0.1 µM [7, 8]: 101%
- inhibition at 0.1 µM [7, 9]: -1%
- % Of control specific binding [7, 10]: 103.4%
- remaining activity at 0.1 µM [7, 11]: 97.9%
Structure (SMILES): Cc1ccc(-c2nnc(SCC(=O)Nc3nccs3)[nH]2)cc1 [Compound 9]

From article PMC7176092, “Development of the first in vivo GPR17 ligand through an iterative drug discovery pipeline: A novel disease-modifying strategy for multiple sclerosis” (PLoS ONE, 2020)
